In brackets after ≈: the same amount, converted by molar mass. Several values for one entry are separate records, joined by “and”; a condition that tells them apart may be missing. Equal values may be shown once. Entries after “also recorded” stand apart in the source; their conditions may differ.

Assay [1] concerns Microsporum canis, B68128 Janssen strain. Description: Antimicrobial screening panel: Microsporum canis. In kind it is cell-based. On the procedure:
(§1) Fractions and isolated compounds were evaluated for antimicrobial activity in an integrated screening panel, also including the human MRC-5 cell line to assess selectivity, as reported before ([Cos et al., 2006]; [Mesia et al., 2008]; [Baldé et al., 2010]; [Amin et al., 2016]).

The subject of assay [2] is formation of AGEs (BSA-glucose). The assay can be described thus: BSA-glucose antiglycation assay. In kind it is biochemical. As to conditions: for IC50: read-out: Protein glycation BSA-Glucose IC50. On the procedure: (§2) The BSA-glucose and BSA-MGO antiglycation assays were performed as reported before ([Amin et al., 2016]). The test protocol is attached as Supplementary Material ([Amin et al., 2016]).
28 Antiglycation assay (BSA-Glucose assay)
29 In the BSA-glucose assay the prevention of AGEs formation is investigated by determining the
30 fluorescence of the complex formed after incubation of a sugar (glucose) with protein (BSA) in
31 the presence or absence of test compounds. The antiglycation assay was performed according to
32 the method developed by Matsuura et al. (2002) with minor modifications. […]
37 DMSO. The mixtures were incubated at 60°C for 48 h. After incubation, the reaction mixture
38 was allowed to cool down at room temperature. Then 100 µL reaction mixture was transferred
39 to a new plastic tube (1.5 mL) and the reaction was stopped by adding 10 μL of 100% (w/v)
40 trichloroacetic acid (TCA) and to precipitate proteins. The TCA-added mixture was kept at 4°C
41 for 10 min, followed by centrifugation (14000 rpm, 4 °C, 4 min). The supernatant containing
42 unreacted D-glucose, test sample and interfering substances was discarded, whereas the
44 8.1 mM Na2HPO4, 2.68 mM KCl, 1.47 mM KH2PO4, […]). The change in fluorescence
46 of AGEs was monitored by spectrofluorometry (Tecan™ Infinite M200, Giessen, The
47 Netherlands). In order to eliminate interference by autofluorescence of the test compounds, a
48 parallel incubation of test substance with BSA at 60°C without D-glucose was performed for all
50 final concentration) were used as reference compounds.
51 The AGEs inhibition was calculated as
55 where F is the fluorescence intensity.
56 calculated using Sigma plot® 13.0.

For assay [3], the system named is formation of AGEs (BSA-MGO). The assay can be described thus: BSA-MGO antiglycation assay. In kind it is biochemical. The method, then: as §2
60 Protein-glyoxal interaction (BSA-MGO assay)
61 The antiglycation assay using methylgloxyl (MGO) was performed according to the method
62 developed by Peng et al. (2007) with slight modifications. Briefly, methylglyoxal (135 μL, 5.75
63 mM) was incubated with BSA (135 μL, 10 mg/mL) dissolved in phosphate buffer (50 mM, pH
64 7.4, containing sodium azide (0.02%), added to prevent bacterial growth) and test compounds
65 (30 μL) at different final concentrations (1.5 – 0.023 mM) in 100% DMSO. The reaction
66 mixture was incubated at 37 °C for one week. Control solutions only contained methylglyoxal
67 (135 μL, 5.75 mM) BSA (135 μL, 1 0mg/mL) and DMSO (100%) only. The blank samples of
68 similar composition were also prepared simultaneously and kept at 4 °C for one week. The
70 440) due to formation of AGEs was monitored by spectrofluorometry (Tecan® Infinite M200,
71 Giessen, The Netherlands). Aminoguanidine (3-0.046 mM final concentration) was used as
72 reference compound. The AGEs inhibition was calculated as
74 % AGEs inhibition = [1–(S–Sb)/(C–Cb)] x 100
76 where S and C were fluorescence of test samples (in DMSO) and control (test mixtures
77 containing only DMSO) incubated at 37 °C, and where Sb and Cb were fluorescence for
78 samples incubated at 4 °C.
79 using Sigma plot® 13.0.

In assay [4] the test system is Trypanosoma brucei, Squib 427. Description: Antimicrobial screening panel: Trypanosoma brucei. In kind it is cell-based. The method, then: as §1
The test system of assay [5] is Leishmania infantum, MHOM/MA/67/ITMAP263. Description: Antimicrobial screening panel: Leishmania infantum. In kind it is cell-based. The method, then: as §1
Assay [6] deals with Trypanosoma cruzi, Tulahuen LacZ, clone C4. Description: Antimicrobial screening panel: Trypanosoma cruzi. In kind it is cell-based. On the procedure:
as §1

For assay [7], the target named is T1, α-glucosidase from Saccharomyces cerevisiae (Saccharomyces cerevisiae, UniProt P53341).
T1 construct: purchased Sigma-Aldrich
T1 sequence (P53341 whole entry): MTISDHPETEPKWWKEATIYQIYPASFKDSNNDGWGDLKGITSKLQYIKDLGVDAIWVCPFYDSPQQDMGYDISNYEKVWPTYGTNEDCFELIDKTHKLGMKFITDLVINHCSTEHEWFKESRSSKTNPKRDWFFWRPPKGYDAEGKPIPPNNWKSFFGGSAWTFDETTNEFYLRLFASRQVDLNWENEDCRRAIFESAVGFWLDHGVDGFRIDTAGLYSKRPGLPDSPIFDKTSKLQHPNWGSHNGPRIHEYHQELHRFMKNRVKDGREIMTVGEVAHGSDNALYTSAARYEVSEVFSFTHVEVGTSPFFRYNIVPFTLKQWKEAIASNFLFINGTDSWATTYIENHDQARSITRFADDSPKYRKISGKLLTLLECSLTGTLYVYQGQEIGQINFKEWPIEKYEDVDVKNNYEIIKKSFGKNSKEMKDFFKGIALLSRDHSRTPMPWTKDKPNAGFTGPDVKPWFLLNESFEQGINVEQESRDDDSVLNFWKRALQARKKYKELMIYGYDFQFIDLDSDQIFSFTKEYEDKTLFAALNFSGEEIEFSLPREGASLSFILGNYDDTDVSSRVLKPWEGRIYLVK
Description: α-glucosidase inhibition assay. It is filed as biochemical. Also noted: inhibition: dose or concentration left out as unconfirmed. As to conditions: read-out: α-glucosidase % inhibition. The method, then:
The α-glucosidase assay was carried out according as reported before ([Amin et al., 2016]). The test protocol is attached as Supplementary Material ([Amin et al., 2016]).
81 Inhibition of α-glucosidase.
82 α-Glucosidase inhibitory activity was assayed according to method adopted by Choudhary et al.
83 (2010) with some modifications. Briefly, 50 µL of a solution of α-glucosidase from
84 Saccharomyces cerevisiae (0.2 U/mL in 0.1 M phosphate buffer at pH 6.8, Sigma-Aldrich, St.
85 Louis, MO, USA) was incubated with 20 μL of test compounds or extracts at different
86 concentrations (ranging from 6 mM – 0.372 mM in 25% DMSO for isolated constituents or
87 from 5 mg to 0.039 mg/mL for extracts) at 37 °C for 10 min. Then 50 μl of the substrate,
88 p-nitrophenyl-α-D-glucopyranoside (0.7 mM stock, final concentration 0.29 mM) was added to
89 the reaction mixture and incubated again for 30 min at 37 °C. […]
91 from 834 µg to 6.5 µg/mL for extracts. The reaction was stopped by adding Na2CO3 (100 μl,
92 200 mM stock) solution and the absorbance was measured at 400 nm. Final DMSO
93 concentration remained below 7.5% during the assay.
94 concentration) was used as reference compound.
96 The % inhibition was calculated using the following formula:
98 % Inhibition = 100 – [OD (test sample) / OD (control)] × 100
100 Alpha-glucosidase inhibition was categorized as mild (1-25%), moderate (26-50%), high

Another assay has as its target T2, 15-LOX from soybean (Glycine max, UniProt P08170).
T2 sequence (P08170 1-839): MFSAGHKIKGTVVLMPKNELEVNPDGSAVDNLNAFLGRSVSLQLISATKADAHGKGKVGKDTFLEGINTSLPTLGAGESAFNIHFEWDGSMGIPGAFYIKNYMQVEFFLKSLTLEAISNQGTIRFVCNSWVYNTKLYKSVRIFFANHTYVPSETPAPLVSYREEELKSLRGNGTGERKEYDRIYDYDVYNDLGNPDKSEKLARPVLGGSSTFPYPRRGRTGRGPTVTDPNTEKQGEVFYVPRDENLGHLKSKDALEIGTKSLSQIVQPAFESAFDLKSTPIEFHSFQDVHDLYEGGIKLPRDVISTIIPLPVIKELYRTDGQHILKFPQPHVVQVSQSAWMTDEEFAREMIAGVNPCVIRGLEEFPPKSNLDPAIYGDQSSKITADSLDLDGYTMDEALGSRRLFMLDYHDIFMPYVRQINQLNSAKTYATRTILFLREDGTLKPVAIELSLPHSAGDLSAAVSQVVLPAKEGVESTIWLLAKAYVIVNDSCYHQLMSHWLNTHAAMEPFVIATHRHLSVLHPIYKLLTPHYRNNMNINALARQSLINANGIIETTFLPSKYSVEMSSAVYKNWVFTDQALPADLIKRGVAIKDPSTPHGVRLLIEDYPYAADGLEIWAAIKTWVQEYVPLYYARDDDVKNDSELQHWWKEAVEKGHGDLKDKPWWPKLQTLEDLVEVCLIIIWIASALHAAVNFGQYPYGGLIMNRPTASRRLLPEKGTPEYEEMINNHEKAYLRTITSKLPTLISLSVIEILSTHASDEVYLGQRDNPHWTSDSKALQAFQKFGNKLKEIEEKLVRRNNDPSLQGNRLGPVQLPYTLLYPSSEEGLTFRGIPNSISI
Description: 15-lipoxygenase inhibition assay. It is filed as biochemical. As to conditions: at the highest test concentration. The method, then: The soybean LOX assay is used as an indication of anti-inflammatory activity ([Muller, 1994]), and therefore during the present investigation, 15-LOX from soybean was used for peroxidation of linoleic acid, and inhibition was measured as described previously with slight modifications ([Malterud and Rydland, 2000]). Briefly, 12.5 μL (2–0.062 mM) of sample was dissolved in DMSO, and added to 487.5 μL of enzyme solution (200 U/mL). The mixture was incubated at room temperature for 5 min. Absorbance was recorded immediately after the addition of 500 μL of substrate (250 μM linoleic acid in 0.2 M borate buffer, pH 9) every minute up to 5 min at 234 nm.
% inhibition of enzyme activity was calculated as,
%inhibition of enzyme activity=([ΔA1/Δt]−[ΔA2/Δt])/(ΔA1/Δt)×100
where ΔA1/Δt and ΔA2/Δt are the increase rate in absorbance at 234 nm for sample without test substance and with test substance, respectively.

The test system of another assay is Escherichia coli. Description: Antimicrobial screening panel: Escherichia coli. It is filed as cell-based. On the procedure:
as §1

The subject of assay [8] is AAPH induced linoleic acid peroxidation. The assay can be described thus: Inhibition of linoleic acid lipid peroxidation, AAPH assay. In kind it is biochemical. As to conditions: slope of inhibition time (Tinh) vs. concentration of antioxidant. On the procedure:
The inhibition of linoleic acid lipid peroxidation was studied according to [Liegeois et al. (2000)] and [Rajic et al. (2010)]. Briefly, 10 μL of a 16 mM linoleic acid dispersion and 10 μL of the test compound (8-1 μM final concentration) were added to the UV cuvette containing 0.93 mL of 0.05 M phosphate buffer, pH 7.4. The oxidation reaction was initiated under air by the addition of 50 μL (40 mM) of AAPH solution. The rate of oxidation at 37°C was monitored by recording the increase of absorption at 234 nm caused by conjugated diene hydroperoxides. The results were compared to the standard inhibitor (Trolox). The AOP is defined as the slope of the curve representing the inhibition time of oxidation (Tinh) vs. the concentration of antioxidant and is expressed in min/μM.

As a reminder, the IC50 is the midpoint of a concentration-inhibition curve. `CN(C/C=C/C#CC(C)(C)C)Cc1cccc2ccccc12` [terbinafin] registered an IC50 in assay [1] of 1.38 µM. For the compound `N=C(N)NN` [Aminoguanidine, reference compound], the “IC50, BSA-glucose assay” value in assay [2] (fractions and positive control) was determined as 199 mg/L (≈ 2690 µM). Besides, the IC50 in [2] came to 1750 µM; in assay [3] (read-out: Protein glycation BSA-MGO IC50), 150 µM. With `Cc1ccc(C(=O)Nc2ccc(S(=O)(=O)O)c3cc(S(=O)(=O)O)cc(S(=O)(=O)O)c23)cc1NC(=O)c1cccc(NC(=O)Nc2cccc(C(=O)Nc3cc(C(=O)Nc4ccc(S(=O)(=O)O)c5cc(S(=O)(=O)O)cc(S(=O)(=O)O)c45)ccc3C)c2)c1` [suramine], the IC50 in assay [4] was found to be 0.03 µM. In [5], `CCCCCCCCCCCCCCCCOP(=O)([O-])OCC[N+](C)(C)C` [miltefosine] registered an IC50 of 9.02 µM. `O=C(Cn1ccnc1[N+](=O)[O-])NCc1ccccc1` [benznidazol, reference compound] yielded an IC50 in [6] of 2.13 µM. The term inhibition denotes the drop in the measured response relative to a control, in per cent. For the compound `CC1(O)C(Cl)C(O)C2(O)C=COC(OC3OC(CO)C(O)C(O)C3O)C12` (centres unmarked) [Compound 4, Linarioside], in assay [2] (isolated constituents, at the highest test concentration of 3 mM), the “Protein glycation BSA-Glucose % inhibition” value is listed as “did not present any activity; also recorded: no activity”. The “Protein glycation BSA-MGO % inhibition” value in assay [3] (isolated constituents, highest test concentration) stood at 9%. Further, in [7], the inhibition is 29%. Moreover, the “15-LOX assay % inhibition” value on 15-LOX from soybean came to 8%. Turning to `O=c1c(O)c(-c2ccc(O)c(O)c2)oc2cc(O)cc(O)c12` [Quercetin, reference compound], in assay [2], the IC50 amounted to 230 µM. As to `O=C(N[C@H](CO)[C@H](O)c1ccc([N+](=O)[O-])cc1)C(Cl)Cl` [chloramphenicol], the IC50 in the assay with Escherichia coli worked out at 2.42 µM. In the case of `Cc1c(C)c2c(c(C)c1O)CCC(C)(C(=O)O)O2` (centres unmarked) [Trolox, reference compound], the “AAPH assay AOP (antioxidant power)” value in [8] is 14.12 min/μM and 14.12^c min/μM.

The values are drawn from article PMC5410595, “In Vitro and In Silico Antidiabetic and Antimicrobial Evaluation of Constituents from Kickxia ramosissima (Nanorrhinum ramosissimum)” (Frontiers in Pharmacology, 2017).
